Source: patent US8952177B2 (Janssen Pharmaceutica NV, priority 2013, dated 2015)
Where a name gives a salt, the structure may show the parent alone. Read-outs that look alike come from different tables or passages of the source.

What was measured:
human FLAP = human FLAP (Homo sapiens (Human), UniProt P20292); assay: FLAP binding assay (HTRF format); conditions: read-out: FLAP Binding wild type HTRF Ki
Method: The ability of the compounds of the present invention to treat a FLAP-mediated disease and/or disorder, or associated symptoms or complications thereof, was determined using the following procedures. Binding assay data represent the average value obtained from two different assay plates, with samples run in duplicate on each plate. Human whole blood assay data represent a single replicate on an assay plate using whole blood from at least one healthy donor.
The assay below is used to test the modulatory activity of compounds against FLAP. Human and mouse FLAP-encoding DNA was amplified by polymerase chain reaction and cloned into pFastBacl (Invitrogen) with a NH2-terminal 6-His tag for expression in Spodoptera frugiperda (Sf-9) cells. FLAP-containing membranes were prepared as was a FITC-labeled FLAP modulator (3-(3-(tert-butylthio)-1-(4-chlorobenzyl)-5-(quinolin-2-ylmethoxy)-1H-indol-2-yl)-2,2-dimethylpropanoic acid). The FLAP binding assay is performed in HTRF format (homogeneous time resolved fluorescence). […] The reaction is allowed to proceed for two hours after which the plate is read on an Envision plate reader in HTRF mode. Data are expressed as a HTRF ratio.
For human FLAP binding assays, data are analyzed with 3DX Explorer software. […] For analysis, data from multiple runs are averaged and each compound may be tested in 2 to 20 runs. Each run comprises two plates and each plate includes duplicates. Data from each plate is averaged and data are imported into 3DX. The data from multiple runs are aggregated as the average of duplicates of the calculated ratios in order to calculate Ki and IC50 values. Numbers in parentheses are the number of runs for the assay.

[1] = system: leukotriene pathway in human whole blood (LTB4); assay: Human whole blood assay (LTB4 after calcium ionophore A23187 stimulation); type: cell-based; conditions: human whole blood diluted 1:1 in RPMI, 15 min pre-incubation, A23187 7 μg/mL for 30 min at 37° Celsius
Method in brief: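 Heparinised human whole blood, diluted 1:1 in RPMI, was preincubated with compound for 15 min at 37° C. before stimulation with A23187 (7 μg/mL) for 30 min. Plasma LTB4 was measured by immunoassay kit and IC50 obtained by 4-parameter fit; single replicate per plate, blood from at least one donor.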

[2] = human FLAP-containing Sf-9 membranes, 25 nM HTRF ligand, 2 h, average of runs

Sequence of human FLAP (P20292 whole entry): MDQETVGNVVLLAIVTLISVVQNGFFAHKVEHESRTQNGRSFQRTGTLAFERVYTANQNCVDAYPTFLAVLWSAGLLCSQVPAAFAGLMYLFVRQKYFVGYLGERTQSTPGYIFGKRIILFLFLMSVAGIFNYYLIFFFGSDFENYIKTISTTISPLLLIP

Structure (SMILES) | Ki (human FLAP; [2]) [nM] | IC50 ([1]; Homo sapiens) [nM] | Ki (human FLAP) [nM] | IC50 [1] [nM]
CCC(CC)(Cc1nc2ccc(OCc3ccc(C)cn3)cc2n1Cc1ccc(OC(F)(F)F)cc1)C(=O)O [Example 22, 2-Ethyl-2-({6-[(5-methylpyridin-2-yl)methoxy]-1-[4-(trifluoromethoxy)benzyl]-1H-benzimidazol-2-yl}methyl)butanoic acid] | 24 | 1660 |  | 
Cc1ccc(Cn2c([C@@H]3CCCC[C@@H]3C(=O)O)nc3c(F)cc(OCc4ccn(C)n4)cc32)cc1 (racemic) [Example 97, racemic cis-2-{4-Fluoro-1-(4-methylbenzyl)-6-[(1-methyl-1H-pyrazol-3-yl)methoxy]-1H-benzimidazol-2-yl}cyclohexanecarboxylic acid as the HCl salt] | 7.5 | 300 |  | 
CCC(CC)(Cc1nc2ccc(OCc3ccc(C)cn3)cc2n1Cc1cccc(-c2ccc(C(F)(F)F)cc2)c1)C(=O)O [Example 149, 2-ethyl-2-((6-((5-methylpyridin-2-yl)methoxy)-1-((4′-(trifluoromethyl)-[1,1′-biphenyl]-3-yl)methyl)-1H-benzo[d]imidazol-2-yl)methyl)butanoic acid] | 36 | 3880 |  | 
Cn1cc(Cl)c(COc2ccc3nc([C@@H]4CCCC[C@@H]4C(=O)O)n(Cc4ccc(OC(F)(F)F)cc4F)c3c2)n1 (racemic) [Example 83, racemic cis-2-{6-[(4-Chloro-1-methyl-1H-pyrazol-3-yl)methoxy]-1-[2-fluoro-4-(trifluoromethoxy)benzyl]-1H-benzimidazol-2-yl}cyclohexanecarboxylic acid] | 4.2 | 350 |  | 
CCC(CC)(Cc1nc2ccc(OCc3ccn(C)n3)cc2n1Cc1ccc(OC(F)(F)F)cc1F)C(=O)O [Example 56, 2-Ethyl-2-({1-[2-fluoro-4-(trifluoromethoxy)benzyl]-6-[(1-methyl-1H-pyrazol-3-yl)methoxy]-1H-benzimidazol-2-yl}methyl)butanoic acid] | 46 | ~2000 |  | 
Cc1cnc(COc2ccc3nc(CC(C)(C)C(=O)O)n(Cc4cccc(-c5ccc(C(F)(F)F)cc5)c4)c3c2)c(F)c1 [Example 143, 3-(6-[(3-Fluoro-5-methylpyridin-2-yl)methoxy]-1-{[4′-(trifluoromethyl)biphenyl-3-yl]methyl}-1H-benzimidazol-2-yl)-2,2-dimethylpropanoic acid] | 13 | 1820 |  | 
CCC(CC)(Cc1nc2ccc(OCc3ccn(C)n3)cc2n1Cc1ccc(-c2ccc(C(F)(F)F)cc2)cc1F)C(=O)O [Example 187] | 7.3 | 360 |  | 
CCC(CC)(Cc1nc2ccc(OCc3ccc(C)cn3)cc2n1Cc1ccc(OC(F)(F)F)c(Cl)c1)C(=O)O [Example 24, 2-({1-[3-Chloro-4-(trifluoromethoxy)benzyl]-6-[(5-methylpyridin-2-yl)methoxy]-1H-benzimidazol-2-yl}methyl)-2-ethylbutanoic acid] | 11 | > 10000 |  | 
Cc1cc(Cn2c([C@@H]3CCCC[C@@H]3C(=O)O)nc3ccc(OCc4ccn(C)n4)cc32)ccc1OC(F)(F)F (racemic) [Example 106, racemic cis-2-{6-[(1-Methyl-1H-pyrazol-3-yl)methoxy]-1-[3-methyl-4-(trifluoromethoxy)benzyl]-1H-benzimidazol-2-yl}cyclohexanecarboxylic acid as the HCl salt] | 5.4 | 1160 |  | 
CCC(CC)(Cc1nc2c(F)cc(OCc3ccc(C)cn3)cc2n1Cc1ccc(Br)cc1)C(=O)O [Example 65, 2-({1-(4-Bromobenzyl)-4-fluoro-6-[(5-methylpyridin-2-yl)methoxy]-1H-benzimidazol-2-yl}methyl)-2-ethylbutanoic acid as the TFA salt] | 6 | 1120 |  | 
Cc1cnc(COc2ccc3nc(CC(C)(C)C(=O)O)n(Cc4ccc(-c5ccc(C(F)(F)F)cc5)cc4F)c3c2)c(F)c1 [Example 141, 3-(6-[(3-Fluoro-5-methylpyridin-2-yl)methoxy]-1-{[3-fluoro-4′-(trifluoromethyl)biphenyl-4-yl]methyl}-1H-benzimidazol-2-yl)-2,2-dimethylpropanoic acid] | 5.1 | 760 |  | 
Cc1ccc(COc2ccc3nc([C@H]4CCCC[C@H]4C(=O)O)n(Cc4ccc(C#N)cc4)c3c2)nc1 (stereo in doubt) [Example 39, (1R*,2S*)-2-{1-(4-Cyanobenzyl)-6-[(5-methylpyridin-2-yl)methoxy]-1H-benzimidazol-2-yl}cyclohexanecarboxylic acid] | 10 | 1070 |  | 
Cc1ccc(COc2cc(F)c3nc(CC4(C(=O)O)CCCC4)n(Cc4ccc(OC(F)(F)F)cc4)c3c2)nc1 [Example 72, 1-({4-Fluoro-6-[(5-methylpyridin-2-yl)methoxy]-1-[4-(trifluoromethoxy)benzyl]-1H-benzimidazol-2-yl}methyl)cyclopentanecarboxylic acid as the TFA salt] |  |  | 60 | 1930
COc1cc(OC(F)(F)F)ccc1Cn1c([C@H]2CCCC[C@H]2C(=O)O)nc2ccc(OCc3ccn(C)n3)cc21 (racemic) [Example 84, racemic cis-2-{1-[2-Methoxy-4-(trifluoromethoxy)benzyl]-6-[(1-methyl-1H-pyrazol-3-yl)methoxy]-1H-benzimidazol-2-yl}cyclohexanecarboxylic acid] | 5.9 | 190 |  | 
Cn1ccc(COc2ccc3nc([C@@H]4CCCC[C@@H]4C(=O)O)n(Cc4ccc(OC(F)(F)F)cc4Br)c3c2)n1 (racemic) [Example 104, racemic cis-2-{1-[2-Bromo-4-(trifluoromethoxy)benzyl]-6-[(1-methyl-1H-pyrazol-3-yl)methoxy]-1H-benzimidazol-2-yl}cyclohexanecarboxylic acid as the HCl salt] | 30 | 690 |  | 
CCC(CC)(Cc1nc2ccc(OCc3ccc(C)cn3)cc2n1Cc1ccc(Br)cc1)C(=O)O [Example 8, 2-({1-(4-Bromobenzyl)-6-[(5-methylpyridin-2-yl)methoxy]-1H-benzimidazol-2-yl}methyl)-2-ethylbutanoic acid as the TFA salt] | 10 | 2320 |  | 
CCC(CC)(Cc1nc2ccc(OCc3ccc(C)cn3)cc2n1Cc1ccc(OC(F)(F)F)cc1F)C(=O)O [Example 23, 2-Ethyl-2-({1-[2-fluoro-4-(trifluoromethoxy)benzyl]-6-[(5-methylpyridin-2-yl)methoxy]-1H-benzimidazol-2-yl}methyl)butanoic acid] | 18 | 910 |  | 
CCC(CC)(Cc1nc2ccc(OCc3ccn(C)n3)cc2n1Cc1ccc(-c2ccc(C(F)(F)F)cc2)cc1F)C(=O)O [Example 188] | 12 |  |  | 550
Cc1cnc(COc2ccc3nc([C@H]4CCCC[C@H]4C(=O)O)n(Cc4c(F)cc(-c5ccc(C(F)(F)F)cc5)cc4F)c3c2)c(F)c1 (racemic) [Example 137, racemic cis-2-(1-((3,5-difluoro-4′-(trifluoromethyl)-[1,1′-biphenyl]-4-yl)methyl)-6-((3-fluoro-5-methylpyridin-2-yl)methoxy)-1H-benzo[d]imidazol-2-yl)cyclohexanecarboxylic acid] | 0.66 | 91 |  | 
Cc1ccc(COc2ccc3nc([C@@H]4CCCC[C@@H]4C(=O)O)n(Cc4ccc(OC(F)(F)F)cc4Cl)c3c2)nc1 (racemic) [Example 101, racemic cis-2-{1-[2-Chloro-4-(trifluoromethoxy)benzyl]-6-[(5-methylpyridin-2-yl)methoxy]-1H-benzimidazol-2-yl}cyclohexanecarboxylic acid as the HCl salt] | 21 | 900 |  | 
Cn1ccc(COc2ccc3nc([C@@H]4CCCC[C@@H]4C(=O)O)n(Cc4ccc(OC(F)(F)F)cc4Cl)c3c2)n1 (racemic) [Example 103, racemic cis-2-{1-[2-Chloro-4-(trifluoromethoxy)benzyl]-6-[(1-methyl-1H-pyrazol-3-yl)methoxy]-1H-benzimidazol-2-yl}cyclohexanecarboxylic acid as the HCl salt] | 30 | 1010 |  | 
Cc1ccc(Cn2c([C@@H]3[C@H](C(=O)O)C3(C)C)nc3ccc(OCc4ccc(C)cn4)cc32)cc1 (racemic) [Example 121, racemic cis-2,2-Dimethyl-3-{1-(4-methylbenzyl)-6-[(5-methylpyridin-2-yl)methoxy]-1H-benzimidazol-2-yl}cyclopropanecarboxylic acid] | 150 | 2110 |  | 
